Source: patent publication US12054470B2, “Photoswitchable dibenzothienylmethyl triphenylphosphonium derivatives and methods of treating cancer therewith” (Saint Louis University, priority 2018, dated 2024)

Columns and labels:
Water solubility = assay type: physicochemical
[1] = tested on: MDA-MB-231 breast cancer cells; test: MTS cell viability assay with and without UV-A exposure; assay type: cell-based; conditions: compound added pre-UV exposure (UV-A 30 min), 100 μM and 10 μM, MTS after 24 h, vs. VC, n=4
Description: After 24 hours incubation at 37° C., varying concentrations of 2-TPPMDBTO were added and incubated for 1 hour at 37° C. One plate with cells were then left at room temperature covered for 15 minutes (cells without UV). The second plate was exposed to UV-A in a Luzchem photoreactor with 8 LZC-UVA lamps for 15 minutes (Cells with UV). Plates were then incubated for 24 hours at 37° C. and then a MTS cell viability assay (Promega) was performed. Cell viability assay was run on a Flexstation3 mulitmode plate reader and percent viability was calculated. Statistical analyses were performed using GraphPad Prism program.
FIGS. 6A-C show cell studies wherein MDA-MB-231 breast cancer cells were plated at 10,000 cells/well on three 96 well plates. After 24 hours incubation at 37° C., varying concentrations of MA-1 and MA-2 were added and incubated for 1 hour at 37° C. on only two plates (pre-UV and no UV exposure). One plate with cells were then left at room temperature covered for 30 min (no UV). The second plate (pre-UV) and the third plate (post-UV) were exposed to UV-A in a Luzchem photoreactor with 8 LZC-UVA lamps for 30 min. Varying concentrations of MA-1, MA-2, MA-3 and MA-4 were added to post UV plate after irradiation. […] Cell viability assay was run on a Flexstation3 mulitmode plate reader and percent viability was calculated. […]

cell cycle progression = test: Cell cycle progression with, without or before UV-A irradiation; assay type: cell-based

[O-][s+]1c2ccccc2c2cc(C[P+](c3ccccc3)(c3ccccc3)c3ccccc3)ccc21 (stereo not drawn) [MA-1, (5-oxo-2-dibenzothienylmethyl)triphenylphosphonium]
water solubility (Water solubility): water soluble

(5-oxo-2-dibenzothienylmethyl)triphenylphosphonium [MA-1]
% cell viability [1]: decrease in % cell viability is observed
cell cycle progression / cell cycle arrest (cell cycle progression; compound administered in the absence of UV or after irradiation): the progression of the cell cycle is not arrested
cell cycle progression / cell cycle arrest (cell cycle progression; compound administered in the absence of UV or after irradiation, listed as 1a): no significant change in the progress was seen
cell cycle progression / cell cycle arrest (cell cycle progression; in the presence of UV-A irradiation): cell cycle progression is arrested
cell cycle progression / cell cycle arrest (cell cycle progression; in the presence of UV-A irradiation, listed as 1a): presence of UV-A irradiation is necessary to lead to cell cycle arrest
